Target: human DP2 (Homo sapiens (Human), UniProt Q9Y5Y4)
Test: DP-2 Binding Inhibition Assay (3H-PGD2 binding to membranes of K562 cells expressing DP2)
Conditions: EC50 (nM) 0.1% BSA, inhibition of 3H-PGD2 binding, 0.1% BSA
Summary of the method: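 Membranes from K562 stably expressing DP2, incubated 60 min at room temperature with ³H-PGD2 and compound in Tris pH 7.4 buffer with 0.1% BSA, 1% HSA or 4% HSA; filtration read-out. Nonspecific binding: 1 μM unlabeled PGD2 or 5 μM known antagonist. EC50 from 4-parameter logistic fit.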

human DP2, sequence (Q9Y5Y4 whole entry): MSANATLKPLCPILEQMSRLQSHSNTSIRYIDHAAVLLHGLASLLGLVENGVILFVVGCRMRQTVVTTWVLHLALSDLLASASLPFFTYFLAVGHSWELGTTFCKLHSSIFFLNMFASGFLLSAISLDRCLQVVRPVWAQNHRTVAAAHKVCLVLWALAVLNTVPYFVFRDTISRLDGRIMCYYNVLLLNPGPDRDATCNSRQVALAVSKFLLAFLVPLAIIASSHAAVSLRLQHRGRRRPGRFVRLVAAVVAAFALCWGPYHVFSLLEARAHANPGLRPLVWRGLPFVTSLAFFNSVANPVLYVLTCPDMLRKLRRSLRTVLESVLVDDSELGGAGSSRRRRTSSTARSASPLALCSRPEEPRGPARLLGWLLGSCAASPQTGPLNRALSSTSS

| EC50 [nM] | Compound |
| --- | --- |
| 11.1 | O=C(NCCc1ccc(Cl)cc1O)c1ccc(Oc2cc3c(cc2Cl)C(C(=O)O)CCO3)cc1 (stereo not drawn) [Example 233, 6-Chloro-7-(4-(4-chloro-2-hydroxyphenethylcarbamoyl)phenoxy)chroman-4-carboxylic acid] |

Same assay, conditions: read-out: EC50 (Nm) 1% HSA; inhibition of 3H-PGD2 binding, 1% HSA

| EC50 [nM] | Compound |
| --- | --- |
| 144 | O=C(NCCc1ccc(Cl)cc1)c1ccc(Oc2cc(Cl)c3c(c2)OCCC3C(=O)O)cc1 (stereo not drawn) [Example 218, 5-chloro-7-(4-(4-chlorophenethylcarbamoyl)phenoxy)chroman-4-carboxylic acid] |
| 1040 | N#Cc1cc2c(cc1Oc1ccc(C(=O)NCC3(c4ccc(Cl)cc4)CC3)cc1)OCCC2C(=O)O (stereo not drawn) [Example 219, 7-(4-((1-(4-chlorophenyl)cyclopropyl)methylcarbamoyl)phenoxy)-6-cyanochroman-4-carboxylic acid] |

Same assay, conditions: read-out: EC50 (nM) 4% HSA; inhibition of 3H-PGD2 binding, 4% HSA

| Compound | EC50 [nM] |
| --- | --- |
| O=C(NCCc1cc(F)ccc1Oc1ccc(Cl)cc1Cl)c1ccc(Oc2cc3c(cc2Cl)C(C(=O)O)CCO3)cc1 (stereo not drawn) [Example 213, sodium 6-chloro-7-(4-(2-(2,4-dichlorophenoxy)-5-fluorophenethylcarbamoyl)phenoxy)chroman-4-carboxylate] | 45.1 |
| O=C(NCCOc1ccccc1)c1ccc(Oc2cc3c(cc2Cl)C(C(=O)O)CCO3)cc1 (stereo not drawn) [Example 220, 6-chloro-7-(4-(2-phenoxyethylcarbamoyl)phenoxy)chroman-4-carboxylic acid] | > 2000 |
| O=C(NCCc1ccc(C(F)(F)F)cc1C(F)(F)F)c1ccc(Oc2cc3c(cc2Cl)C(C(=O)O)CCO3)cc1 (stereo not drawn) [Example 221, 7-(4-(2,4-bis(trifluoromethyl)phenethylcarbamoyl)phenoxy)-6-chlorochroman-4-carboxylic acid] | 45 |
| O=C(NCCc1ccc(OC(F)F)cc1)c1ccc(Oc2cc3c(cc2Cl)C(C(=O)O)CCO3)cc1 (stereo not drawn) [Example 223, 6-chloro-7-(4-(4-(difluoromethoxy)phenethylcarbamoyl)phenoxy) chroman-4-carboxylic acid] | 209 |
| COc1cc(Cl)c(CCNC(=O)c2ccc(Oc3cc4c(cc3Cl)C(C(=O)O)CCO4)cc2)c(Cl)c1 (stereo not drawn) [Example 224, 6-chloro-7-(4-(2,6-dichloro-4-methoxyphenethylcarbamoyl)phenoxy)chroman-4-carboxylic acid] | 373 |
| COc1cc(Cl)c(CCNC(=O)c2ccc(Oc3cc4c(cc3Cl)C(C(=O)O)CCO4)cc2)c(OC)c1 (stereo not drawn) [Example 226, 6-chloro-7-(4-(2-chloro-4,6-dimethoxyphenethylcarbamoyl)phenoxy)chroman-4-carboxylic acid] | 88.5 |
| CCOc1ccc(CCNC(=O)c2ccc(Oc3cc4c(cc3Cl)C(C(=O)O)CCO4)cc2)c(OC)c1 (stereo not drawn) [Example 227, 6-chloro-7-(4-(4-ethoxy-2-methoxyphenethylcarbamoyl)phenoxy)chroman-4-carboxylic acid] | 74.5 |
| O=C(NCCc1ccc(Cl)cc1F)c1ccc(Oc2cc3c(cc2Cl)C(C(=O)O)CCO3)cc1 (stereo not drawn) [Example 230, 6-chloro-7-(4-(4-chloro-2-fluorophenethylcarbamoyl)phenoxy)chroman-4-carboxylic acid] | 243 |
| O=C(NCC1CCc2cc(Cl)ccc21)c1ccc(Oc2cc3c(cc2Cl)C(C(=O)O)CCO3)cc1 (stereo not drawn) [Example 231, 6-chloro-7-(4-((5-chloro-2,3-dihydro-1H-inden-1-yl)methylcarbamoyl)phenoxy) chroman-4-carboxylic acid] | 225 |
| O=C(NCCc1ccc(C(F)(F)F)cc1C1CC1)c1ccc(Oc2cc3c(cc2Cl)C(C(=O)O)CCO3)cc1 (stereo not drawn) [Example 232, 6-chloro-7-(4-(2-cyclopropyl-4-(trifluoromethyl)phenethylcarbamoyl)phenoxy) chroman-4-carboxylic acid] | 46.5 |

Other lines, results leading:

| EC50 [nM] | Compound |
| --- | --- |
| 81.5 | O=C(NCCc1cc(F)ccc1Oc1ccc(Cl)c(Cl)c1)c1ccc(Oc2cc3c(cc2Cl)C(C(=O)O)CCO3)cc1 (stereo not drawn) [Example 212, sodium 6-chloro-7-(4-(2-(3,4-dichlorophenoxy)-5-fluorophenethylcarbamoyl)phenoxy)chroman-4-carboxylate] |
| 118 | COc1cc(OC)c(CCNC(=O)c2ccc(Oc3cc4c(cc3Cl)C(C(=O)O)CCO4)cc2)c(OC)c1 (stereo not drawn) [Example 222, 6-chloro-7-(4-(2,4,6-trimethoxyphenethylcarbamoyl)phenoxy)chroman-4-carboxylic acid] |
| 56 | CCOc1ccc(CCNC(=O)c2ccc(Oc3cc4c(cc3Cl)C(C(=O)O)CCO4)cc2)c(OCC)c1 (stereo not drawn) [Example 225, 6-chloro-7-(4-(2,4-diethoxyphenethylcarbamoyl)phenoxy)chroman-4-carboxylic acid] |
| 88.9 | CCOc1cc(OC)ccc1CCNC(=O)c1ccc(Oc2cc3c(cc2Cl)C(C(=O)O)CCO3)cc1 (stereo not drawn) [Example 228, 6-chloro-7-(4-(2-ethoxy-4-methoxyphenethylcarbamoyl)phenoxy)chroman-4-carboxylic acid] |
| 67.5 | CSc1cc(Cl)ccc1CCNC(=O)c1ccc(Oc2cc3c(cc2Cl)C(C(=O)O)CCO3)cc1 (stereo not drawn) [Example 229, 6-chloro-7-(4-(4-chloro-2-(methylthio)phenethylcarbamoyl)phenoxy)chroman-4-carboxylic acid] |

Reference: patent US9556139B2, “6-substituted phenoxychroman carboxylic acid derivatives” (Array BioPharma Inc., priority 2008, dated 2017)
